The values that follow come from patent publication US5750720A, “4-[(thien-3-yl)methyl]-imidazole analgesics” (Ortho Pharmaceutical Corporation, priority 1996, dated 1998).

Where a name gives a salt, the structure may show the parent alone. Read-outs that look alike come from different tables or passages of the source.

Data set [1] has as its target T1, Alpha2D adrenergic receptor (Rattus norvegicus, UniProt P22909).
T1 construct: aliquots of the synaptic membrane fraction; from tissue; host or cells: rat cerebral cortex, synaptic membrane fraction
T1 sequence (P22909 1-465): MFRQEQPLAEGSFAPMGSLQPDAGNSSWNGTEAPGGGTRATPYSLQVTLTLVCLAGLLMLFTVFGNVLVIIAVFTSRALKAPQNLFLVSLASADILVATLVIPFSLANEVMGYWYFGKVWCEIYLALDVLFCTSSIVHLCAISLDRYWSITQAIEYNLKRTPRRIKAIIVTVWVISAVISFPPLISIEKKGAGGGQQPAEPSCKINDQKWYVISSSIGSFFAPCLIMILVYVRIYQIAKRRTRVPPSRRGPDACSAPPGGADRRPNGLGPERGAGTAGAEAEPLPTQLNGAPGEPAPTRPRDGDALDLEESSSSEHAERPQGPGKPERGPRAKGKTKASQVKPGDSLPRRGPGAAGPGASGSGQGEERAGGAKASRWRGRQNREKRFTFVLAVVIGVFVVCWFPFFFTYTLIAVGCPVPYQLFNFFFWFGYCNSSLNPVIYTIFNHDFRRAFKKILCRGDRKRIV
Kind of data set: Alpha2D adrenergic receptor binding assay (3H-paraaminoclonidine, rat cortex synaptic membranes). Also on record: species or system Wistar rats. As to the method: Alpha2D adrenergic receptor binding assay
Male, Wistar rats (150-250 g, VAF, Charles River, Kingston, N.Y.) are sacrificed by cervical dislocation and their brains removed and placed immediately in ice cold HEPES buffered sucrose. The cortex is dissected out and homogenized in 20 volumes of HEPES sucrose in a Teflon®-glass homogenizer. The homogenate is centrifuged at 1000 g for 10 min, and the resulting supernatant centrifuged at 42,000 g for 10 min. The resulting pellet is resuspended in 30 volumes of 3 mM potassium phosphate buffer, pH 7.5, preincubated at 25° C. for 30 min and recentrifuged. The resulting pellet is resuspended as described above and used for the receptor binding assay. Incubation is performed in test tubes containing phosphate buffer, 2.5 mM MgCl2, aliquots of the synaptic membrane fraction, the ligand ^3 H-paraaminoclonidine and test drug at 25°0 C. for 20 min. The incubation is terminated by filtration of the tube contents through glass fiber filter sheets. Following washing of the sheets with 10 mM HEPES buffer, the adhering radioactivity is quantified by liquid scintillation spectrometry.
Binding of the test drug to the receptor is determined by comparing the amount of radiolabeled ligand bound in control tubes without drug to the amount of radiolabeled ligand bound in the presence of the drug. Dose-response data are analyzed with LIGAND, a nonlinear curve fitting program designed specifically for the analysis of ligand binding data. This assay is described by Simmons, R. M. A., and Jones, D. J., Binding of [^3 H-]prazosin and [^3 H-]p-aminoclonidine to α-Adrenoceptors in Rat Spinal Cord, Brain Research 445:338-349, 1988.

For data set [2], the system named is acetylcholine bromide-induced abdominal constriction response. Kind of data set: Mouse Acetylcholine Bromide-Induced Abdominal Constriction Assay. It counts as in vivo. Conditions: p.o., 30 min before acetylcholine bromide 5.5 mg/kg i.p.; for ED50: po, 0.5 h, dose producing 50% analgesia; for inhibition at 30 mg/kg: @30 mpk. As to the method: Mouse Acetylcholine Bromide-Induced Abdominal Constriction Assay
The mouse acetylcholine bromide-induced abdominal constriction assay, as described by Collier et al. in Brit. J. Pharmacol. Chem. Ther., 32:295-310, 1968, with minor modifications was used to assess analgesic potency of the compounds herein. The test drugs or appropriate vehicle were administered orally (p.o.) and 30 minutes later the animal received an intraperitoneal (i.p.) injection of 5.5 mg/kg acetylcholine bromide (Matheson, Coleman and Bell, East Rutherford, N.J.). The mice were then placed in groups of three into glass bell jars and observed for a ten minute observation period for the occurrence of an abdominal constriction response (defined as a wave of constriction and elongation passing caudally along the abdominal wall, accompanied by a twisting of the trunk and followed by extension of the hind limbs). The percent inhibition of this response to a nociceptive stimulus (equated to % analgesia) was calculated as follows: The % Inhibition of response, i.e., % analgesia is equal to the difference between the number of control animals response and the number of drug-treated animals response times 100 divided by the number of control animals responding.
At least 15 animals were used for control and in each of the drug treated groups. At least three doses were used to determine each dose response curve and ED50 (that dose which would produce 50% analgesia). The ED50 values and their 95% fiducial limits were determined by a computer assisted probit analysis.

For data set [3], the system named is α2-adrenoceptor. The conditions noted are these: non-opiate mechanism, without opiate liability; cited from earlier work.
Data set [4] has as its system α2-adrenoceptor. Conditions: cited from earlier work; for hypotensive effect: animals and humans, magnitude relatively insignificant.
Where [5] appears, read: 3H-paraaminoclonidine, rat cortex, 25° C, 20 min, read-out: Ki.

In data set [1], `CCc1sccc1Cc1c[nH]cn1.O=C(O)/C=C/C(=O)O` [Cp-7, 4-[(2-ethylthien-3-yl)methyl]-1H-imidazole fumarate] had a Ki of 0.07 nM. It took a dose of 0.4 mg/kg to reach the 50% effect level in data set [2] (ED50).
The compound `Cc1sccc1Cc1c[nH]cn1` [Cp-1, 4-[(2-Methylthien-3-yl)methyl]-1H-imidazole Fumarate] showed a Ki in data set [1] of 0.44 nM. In data set [2], this compound displayed an inhibition at 30 mg/kg of 100%.
On to `CCc1cc(C(C)c2c[nH]cn2)c(CC)s1` (stereo not shown), for which the inhibitory constant (Ki) in data set [1] (setting [5]) worked out at 11.4 nM. Testing at 30 mg/kg in data set [2] gave an inhibition of 67%.
For `Cc1cscc1C(C)c1c[nH]cn1.O=C(O)/C=C/C(=O)O` (stereo not shown) [Cp-3, 4-[1-(4-Methylthien-3-yl)ethyl]-1H-imidazole Fumarate], in data set [1], the affinity, expressed as Ki, was 0.39 nM. This compound also came in with an ED50 in data set [2] of 0.4 mg/kg.
Consider `CCC(c1c[nH]cn1)c1cscc1C` (stereo not shown) [Cp-4, 4-[1-(4-Methylthien-3-yl)propyl]-1H-imidazole Fumarate], for which the Ki in data set [1] was 0.97 nM. Also, testing at 30 mg/kg in data set [2] gave an inhibition of 100%.
As to `C=C(c1c[nH]cn1)c1csc(Br)c1Br`, the Ki in data set [1] (setting [5]) was 0.98 nM. Moreover, the inhibition at 30 mg/kg in data set [2] was found to be 27%.
`Cc1sccc1C(C)c1c[nH]cn1` (stereo not shown): the Ki in data set [1] (setting [5]) is 2.3 nM. This compound also yielded an ED50 in data set [2] of 1.6 mg/kg.
`CC(c1ccsc1)c1c[nH]cn1` (stereo not shown): the Ki in data set [1] (setting [5]) was found to be 2.5 nM. This compound registered an inhibition at 30 mg/kg in data set [2] of 100%.
On the same counts, the results for `Cc1cc(C(C)c2c[nH]cn2)c(C)s1` (stereo not shown) are 6.1 nM and 100%.
Turning to `CCc1cscc1C(C)c1c[nH]cn1` (stereo not shown) [Cp-10, 4-[1-(4-ethylthien-3-yl)ethyl]-1H-imidazole fumarate], the Ki in data set [1] turned out to be 0.28 nM. This compound also showed an inhibition at 30 mg/kg in data set [2] of 100%.
For `Clc1cccc(Cl)c1NC1=NCCN1` [Clonidine], the analgesia entry with α2-adrenoceptor [3] was “produce analgesia through a non-opiate mechanism”. Further, in the data set on α2-adrenoceptor [4] (in vivo), the “other behavioral and physiological effects” value was “sedation and cardiovascular effects”.
As for `CCc1cc(Cc2c[nH]cn2)c(CC)s1.O=C(O)/C=C/C(=O)O` [Cp-6, 4-[(2,5-diethylthien-3-yl)methyl]-1H-imidazole Fumarate], in data set [1], the Ki was found to be 0.4 nM. Moreover, it took a dose of 3.7 mg/kg to reach the 50% effect level in data set [2] (ED50).
As to `Cc1cccc(C(C)c2cnc[nH]2)c1C` (racemic) [Medetomidine], in the data set with α2-adrenoceptor [4], the hypotensive effect result was “hypotensive in animals and in humans, but the magnitude of this cardiovascular effect is relatively insignificant”.
In turn, `Cc1csc(C)c1Cc1c[nH]cn1` [Cp-8, 4-[(2,4-Dimethylthien-3-yl)methyl]-1H-imidazole Fumarate] came in with an inhibitory constant (Ki) in data set [1] of 0.1 nM. Also, testing at 30 mg/kg in data set [2] gave an inhibition of 100%.
`Cc1csc(C)c1C(C)c1c[nH]cn1` (stereo not shown): the inhibition constant (Ki) in data set [1] (setting [5]) was found to be 33.5 nM. Besides, in data set [2], the ED50 is 7.8 mg/kg.
`CCc1sccc1C(C)c1c[nH]cn1` (stereo not shown): the Ki in data set [1] (setting [5]) was 1.1 nM. The inhibition at 30 mg/kg in data set [2] is 100%.
In the case of `Cc1cc(Cc2c[nH]cn2)c(C)s1.O=C(O)/C=C/C(=O)O` [Cp-5, 4-[(2,5-dimethylthien-3-yl)methyl]-1H-imidazole Fumarate], the Ki in data set [1] amounted to 0.69 nM. Also, the median effective dose (ED50) in data set [2] was found to be 1.3 mg/kg.
As for `Cc1cccc(Cc2c[nH]cn2)c1C` [detomidine], the hypotensive effect entry in the data set on α2-adrenoceptor [4] was “hypotensive in animals and in humans, but the magnitude of this cardiovascular effect is relatively insignificant”.
As for `c1nc(Cc2ccsc2)c[nH]1`, the Ki in data set [1] (setting [5]) came to 3.1 nM. The compound also gave an ED50 in data set [2] of 6.4 mg/kg.
For `Cc1cscc1Cc1c[nH]cn1.O=C(O)/C=C/C(=O)O` [Cp-2, 4-[(4-Methylthien-3-yl)methyl]-1H-imidazole Fumarate], the affinity in data set [1], expressed as Ki, was 0.47 nM. The 50% effect level in data set [2] (ED50) was put at a dose of 0.4 mg/kg.
Turning to `CCc1cscc1Cc1c[nH]cn1` [Cp-9, 4-[(4-ethylthien-3-yl)methyl]-1H-imidazole fumarate], the affinity in data set [1] corresponds to a Ki of 0.29 nM. Testing at 30 mg/kg in data set [2] gave an inhibition of 100%.
